Test results taken from ChEMBL document CHEMBL5729440, “Compounds and methods for treating oxalate-related diseases” (2022).

Molecular target: T1, 2-Hydroxyacid oxidase 1 (Homo sapiens, UniProt Q9UJM8)
T1 sequence (Q9UJM8 whole entry): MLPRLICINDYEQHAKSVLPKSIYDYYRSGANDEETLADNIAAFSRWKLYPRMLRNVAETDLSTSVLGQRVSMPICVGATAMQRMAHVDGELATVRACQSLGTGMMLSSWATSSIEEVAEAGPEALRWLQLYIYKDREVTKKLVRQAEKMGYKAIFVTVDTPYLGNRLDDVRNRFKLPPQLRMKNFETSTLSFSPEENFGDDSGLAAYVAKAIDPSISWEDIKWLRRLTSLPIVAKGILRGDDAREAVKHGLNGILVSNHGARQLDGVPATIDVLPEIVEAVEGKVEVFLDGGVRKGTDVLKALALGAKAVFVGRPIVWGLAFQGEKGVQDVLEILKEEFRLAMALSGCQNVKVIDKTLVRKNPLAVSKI
Test: In-Vitro Human Glycolate Oxidase (hGOX) Assay: The in-vitro glycolate oxidase assay was performed using recombinant full-length human hydroxyacid oxidase 1 (HAO1), the equivalents of hGOX. The enzyme was obtained from AbCam (Catalog #ab113144) and was purified using conventional chromatography to >95% purity. Purified HAO1 was dissolved in assay buffer consisting of 10 mM NaCl, 110 mM KCl, 2 mM MgCl2, 50 mM HEPES (pH 7.4), and 0.01% Triton™ X-100. The assay used Corning 3575 384-well flat bottom, low flange, non-binding surface, black polystyrene plates.Test compounds in DMSO were preincubated at different concentrations with purified recombinant human GO (6 nM) for 10 min, followed by the addition of glycolate substrate (85 μM) to start the reaction. The plates were incubated for 10 min at room temperature, at which point Amplex red reagent (50 μM) was added.The fluorescence intensity signal was measured on a VariosKan LUX instrument using an excitation of 560 nm and an emission of 590 nm. The IC50 values were calculated using Graphpad Prism.

- IC50: 4.7 µM
SMILES: CC(C)CC#Cc1cccc(S(=O)(=O)c2[nH]nnc2C(=O)O)c1
